# According to patent US5936088A, “Substituted azacyclic or azabicyclic compounds with affinity and selectivity for nicotinic cholinergic receptors” (Novo Nordisk A/S, priority 1995, dated 1999):
# Structures can show the parent of a compound that is named as a salt. Where two headings read alike, the source gives them in different places.
# Legend:
# [1] = target: T1, nicotinic acetylcholine receptors (Rattus norvegicus, UniProt P09483+P12390); assay: inhibition of specific binding of ^3 H-methylcarbamylcholine (^3 H-MCC); conditions: for IC50: rat cortical receptors, ^3 H-MCC 2 nM, 0° C., 60 min
# T1 construct: Fresh or frozen rat, brain tissue (hippocampus or cortex) was homogenized; from tissue
# From the text: The pharmacological properties of the compounds of the invention can be illustrated by determining their capability to inhibit the specific binding of ^3 H-methylcarbamylcholine (^3 H-MCC) (Abood and Grassi, Biochem. Pharmacol., Vol. 35, pp. 4199-4202, (1986)).
# ^3 H-MCC labels the nicotinic receptors in the CNS. The inhibitory effect on ^3 H-MCC binding reflects the affinity for nicotinic acetylcholine receptors.
# Fresh or frozen rat, brain tissue (hippocampus or cortex) was homogenized in assay buffer (50 mM Tris-HCl, pH 7.4, 120 mM NaCl, 5 mM KCl, 2 mM CaCl2, 1 mM MgCl2) and centrifuged for 10 min. at 40.000×g. Pellets were subsequently reconstituted in assay buffer and an appropriate amount of tissue sample was mixed in tubes with ^3 H-methylcarbamylcholine (NEN, NET-951; final concentration 2 nM) and test drug. The tubes were incubated at 0° C. for 60 min. Unbound ligand was separated from bound ligand by vacuum filtration through GF/B filters presoaked in 0.5% polyethylenimine. Filters were washed three times with 5 ml wash buffer (50 mM Tris-HCl, pH 7.4) and transferred to vials. 4 ml scintillation fluid was added and the radioactivity was measured by scintillation counting. Unspecific binding was measured with 10 μM nicotine.
# The IC50 values of the test compounds were determined by nonlinear regression analyses (GraphPad InPlot).
# Table I illustrates the affinity of the compounds of the present invention for nicotinic and muscarinic receptors as determined by ^3 H-MCC and ^3 H-Oxo binding to rat cortical receptors. The compounds, however, show selective affinity for nicotinic receptors as compared to muscarinic receptors, i.e OXO/MCC>1.
# [2] = target: muscarinic acetylcholine receptors; assay: inhibition of specific binding of ^3 H-Oxotremorine-M (^3 H-Oxo); conditions: rat cortical receptors; ^3 H-Oxotremorine 1.0 nM, 25° C., 30 min
# From the text: Furthermore, the pharmacological properties of the compounds of the invention can also be illustrated by determining their capability to inhibit the specific binding of ^3 H-Oxotremorine-M (^3 H-Oxo). Birdsdall N. J. M., Hulme E. C., and Burgen A. S. V. (1980). "The Character of Muscarinic Receptors in Different Regions of the Rat Brain". Proc. Roy. Soc. London (Series B) 207,1.
# ^3 H-Oxo labels muscarinic receptor in the CNS (with a preference for agonist domains of the receptors). Three different sites are labelled by ^3 H-Oxo. […] Using the present experimental conditions only the high and medium affinity sites are determined.
# The inhibitory effects of compounds on ^3 H-Oxo binding reflects the affinity for muscarinic acetylcholine receptors.
# All preparations are performed at 0-4° C. unless otherwise indicated. […]
# The final pellet is homogenized in 20 mM Hepes pH: 7.4 (100 ml per g of original tissue) and used for binding assay. […] Non-specific binding is determined in triplicate using arecoline (1 ug/ml, final concentration) as the test substance. […] The amount of radioactivity on the filters are determined by conventional liquid scintillation counting. […]
# Table I illustrates the affinity of the compounds of the present invention for nicotinic and muscarinic receptors as determined by ^3 H-MCC and ^3 H-Oxo binding to rat cortical receptors. […]
# [3] = target: muscarinic acetylcholine receptors; conditions: read-out: affinity of ^3 H-Oxo labelled site, cited from earlier work
# cognition = conditions: age related; cited from earlier work
# attention and memory = conditions: healthy humans and Alzheimer's disease patients; cited from earlier work
# [4] = tested on: dopamine release in the nucleus accumbens; conditions: nucleus accumbens versus striatum; cited from earlier work
# substantia nigra = conditions: chronic nicotine; lesioning; cited from earlier work
# Tourette's syndrome = conditions: in vivo; cited from earlier work
# dopaminergic effects = conditions: various behavioral models; cited from earlier work
# T1 sequence (P09483 31-630): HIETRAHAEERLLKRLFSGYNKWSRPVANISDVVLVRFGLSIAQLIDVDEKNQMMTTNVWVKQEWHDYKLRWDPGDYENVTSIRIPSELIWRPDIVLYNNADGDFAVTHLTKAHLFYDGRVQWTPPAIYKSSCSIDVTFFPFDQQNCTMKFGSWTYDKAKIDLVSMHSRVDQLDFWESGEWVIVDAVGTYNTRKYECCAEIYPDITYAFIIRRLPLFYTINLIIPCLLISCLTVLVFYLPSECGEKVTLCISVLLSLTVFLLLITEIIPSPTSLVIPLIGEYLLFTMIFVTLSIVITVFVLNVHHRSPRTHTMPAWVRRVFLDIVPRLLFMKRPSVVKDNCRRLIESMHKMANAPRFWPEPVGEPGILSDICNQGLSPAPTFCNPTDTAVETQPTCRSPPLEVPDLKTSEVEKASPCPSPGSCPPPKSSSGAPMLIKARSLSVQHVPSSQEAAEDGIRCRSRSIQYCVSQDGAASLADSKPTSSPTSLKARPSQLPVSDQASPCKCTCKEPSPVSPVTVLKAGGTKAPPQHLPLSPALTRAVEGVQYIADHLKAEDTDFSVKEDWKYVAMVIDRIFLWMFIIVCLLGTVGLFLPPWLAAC
# T1 sequence (P12390 25-500): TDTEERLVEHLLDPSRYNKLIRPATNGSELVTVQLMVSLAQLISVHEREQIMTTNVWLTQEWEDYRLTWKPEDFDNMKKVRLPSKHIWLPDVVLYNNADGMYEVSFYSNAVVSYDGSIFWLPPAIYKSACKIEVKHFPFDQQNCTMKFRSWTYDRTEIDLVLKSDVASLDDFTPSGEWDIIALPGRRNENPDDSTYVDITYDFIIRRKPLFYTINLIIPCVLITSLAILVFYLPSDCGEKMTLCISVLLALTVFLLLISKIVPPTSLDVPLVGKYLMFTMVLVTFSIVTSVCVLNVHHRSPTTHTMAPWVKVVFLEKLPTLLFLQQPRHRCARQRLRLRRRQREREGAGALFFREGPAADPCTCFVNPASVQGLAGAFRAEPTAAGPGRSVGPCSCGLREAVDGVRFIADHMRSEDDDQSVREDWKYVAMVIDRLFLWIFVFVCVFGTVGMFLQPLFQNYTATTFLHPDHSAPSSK
structure (smiles),measurement,setting,value
"CC(=O)/C=C1\CN2CCC1CC2.O=C(O)C(=O)O [Compound 1, (Z)-3-Acetylmethylene-1-azabicyclo[2.2.2]octane oxalate]",IC50,[1],23 nM
same,Oxo/MCC Ratio,[1]; selectivity nicotinic versus muscarinic: ^3 H-Oxo IC50 / ^3 H-MCC IC50,52
same,IC50,[2],1200 nM
"CC(=O)/C=C1/CN2CCC1CC2 [Compound 2, (E)-3-Acetylmethylene-1-azabicyclo[2.2.2]octane oxalate]",IC50,[1],> 300 nM
same,IC50,[2],< 1000 nM
"C[N+](C)(C)CC#CCN1CCCC1=O [^3 H-Oxo, ^3 H-Oxotremorine-M]",Kd,[3]; high affinity site,1.8 nM
same,Kd,[3]; medium affinity site,20 nM
same,Kd,"[3]; third (lowest affinity) site, not determined under the present conditions",3000 nM
CNC1(C)C2CCC(C2)C1(C)C (centres unmarked) [mecamylamine],cognitive impairment,cognition,shown to cause cognitive impairment in an age related way
CN1CCCC1c1cccnc1 (centres unmarked) [nicotine],attention and memory,attention and memory,improved attention and memory in healthy humans
same,stimulation of dopamine release,[4],stimulates dopamine release in the nucleus accumbens more potently than in striatum
same,protection against cell loss in the substantia nigra,substantia nigra,may protect against cell loss in the substantia nigra caused by lesioning
same,effects in Tourette's syndrome,Tourette's syndrome,shown beneficial effects in Tourette's syndrome
same,potentiation of dopaminergic effects,dopaminergic effects,will potentiate dopaminergic effects in various behavioral models
